In patent US20250222169A1, “PHOTOINTIATOR, BIOINK INCLUDING THE SAME, AND METHODE OF MANUFACTURING HYDROGEL” (PUSAN NATIONAL UNIVERSITY INDUSTRY-UNIVERSITY COOPERATION …, priority 2024, published 2025):

Legend:
[1] = in water at about 25° C.
[2] = tested on: Murine NIH-3T3 fibroblasts; experiment: Cytotoxicity of the photoinitiator (cell viability of fibroblasts); format: cell-based; settings: concentration of about 0.2% (w/v), about 24 hours
Description: Murine NIH-3T3 fibroblasts purchased from ATCC (Manassas, VA, USA) were cultured in a cell culture dish in a size of about 100 mm along with DMEM supplemented with about 10% FBS and penicillin-streptomycin (about 100 UI/ml). The cultured cells were kept at about 37° C. in a sterile culture machine (Labogene, Seoul, Korea) containing about 5% CO2 until reaching the confluence.
To conduct cell viability analysis, fibroblasts were seeded into 24-well-plates (2×10^4 cells/well) and cultured in a sterile culture machine at about 37° C. for about 12 hours, and then the media were removed.
In particular, by substituting with highly biocompatible Mg^2+ ions, it was identified that there was a remarkable effect on reduction in the cytotoxicity.

[3] = Molar extinction coefficient by UV-visible absorption spectra in distilled water; format: physicochemical; settings: at about 405 nm, 10 mm quartz cuvettes
Excerpt: FIG. 5 is a graph of a molar extinction coefficient (ε)-wavelength of Examples according to the present disclosure.

In the case of `Cc1cc(C)c(C(=O)P(=O)([O-])c2ccccc2)c(C)c1.[Li+]` [LAP, Lithium phenyl-2,4,6-trimethylbenzoylphosphination], the maximum solubility [1] is reported as “about 159.7 mM”, the cell viability [2] is reported as “about 46%” and the molar extinction coefficient [3] is reported as “about 29 M^−1·cm^−1”.
